{"source": "patent US8377640B2", "about": "“Diagnostic screens for Alzheimer's disease” (ISIS Innovation Ltd., priority 2001, dated 2013)", "key": {"cultured lymphocytes [1]": {"system": "cultured lymphocytes", "test": "MTT survival assay of PHA-activated lymphocyte cultures, treated versus control", "type": "cell-based, human", "method": "In the second set of experiments (53 subjects) after an initial 48 hours incubation (as above) four separate cultures were set up. Control cultures were left without any treatment, one set of cultures was treated with 100 ng/ml rapamycin, the third set was treated with 1 μM doxorubicin while the fourth set was treated with 120 μM H2O2. Doxorubicin induces DNA damage, leading to arrest at G2/M, rather than G1/S. H2O2 treatment produces oxidative stress, leading to a reversible and temporary cell cycle arrest at G1/S.\nAfter 20 hours of incubation a 4 hour long MTT survival assay (Chemicon International Ltd) was set up. Results were read using a microplate reader (570 filter; 630 reference filter). The ratio between cell numbers in treated cultures versus controls was expressed as percent."}, "cultured lymphocytes [2]": {"system": "cultured lymphocytes", "test": "Relative lengthening of the G1 phase (BrdU incorporation, FACS) in PHA-activated lymphocyte cultures treated with rapamycin", "type": "cell-based, human", "conditions": "100 ng/ml rapamycin; for dG1: relative lengthening of the G1 phase of the cell cycle under Rapamycin effect: 24 h; for Mean (dG1): group mean", "method": "A first set of experiments was carried out on 49 subjects (Table 1A), whilst a second set of experiments was carried out on 55 subjects (Table 1B). In the first set of experiments (49 subjects) two parallel lymphocyte cultures were set up from every individual in RPMI medium supplemented with 10% FCS at a concentration of 1×10^6 cells per 1 ml of culture media. Phytohaemaglutinin (PHA) was added to the cultures at a final concentration of 22 μg/ml to activate the lymphocytes. Cultures were incubated for 48 hours at 37° C. in a humidified atmosphere containing 5% CO2. After 48 hours incubation one culture was treated with 100 ng/ml rapamycin, while the other untreated culture was kept as a control. After a further 23 hours incubation BrdU was added in a concentration of 10 μg/ml to all cultures. After another hour cultures were ‘collected’ and fixed in 70% ice-cold ethanol. BrdU incorporation was assessed using immunohistochemistry followed by FACS analysis. The proportion of cells in various phases of the cell cycle was determined and data transformation performed to obtain the relative lengthening of the G1 phase (FIG. 1).\nThe calculations (relative lengthening of the G1 phase of the cell cycle in treated cultures relative to control cultures) were based on the assumptions that cells were in the exponential phase of proliferation and that the growth fraction in the cultures (ratio of dividing cells versus quiescent cells) was 1.0 (5). It was also assumed that rapamycin only altered the length of the G1 phase (19). Based on these assumptions the relative lengthening of the G1 phase was calculated using the formula: RL=100f-100 (expressed in percent). The ratio of the G1 time in treated versus control cultures: f=TG1tr/TG1c=[1n2−1n(2−G1tr)][1n(2−G1c)]/[1n(2−G1tr)][1n2−1n(2−G1c)] (5)"}}, "note": "Values joined by “and” are separate entries in the source; they are usually repeats but may differ in a detail not shown here. Equal values may be shown once.", "data": [{"smiles": "COc1cccc2c1C(=O)c1c(O)c3c(c(O)c1C2=O)C[C@@](O)(C(=O)CO)C[C@@H]3O[C@H]1C[C@H](N)[C@H](O)[C@H](C)O1", "note": "[Doxorubicin, doxorubicin]", "values": [{"measurement": "Cell numbers after treatment (treated versus control cultures)", "setting": "cultured lymphocytes [1]; 1 μM doxorubicin, 24 h, comparison between patient groups", "value": "did not result in significant differences between patient groups"}]}, {"smiles": "CO[C@H]1C[C@@H]2CC[C@@H](C)[C@@](O)(O2)C(=O)C(=O)N2CCCC[C@H]2C(=O)O[C@H]([C@H](C)C[C@@H]2CC[C@@H](O)[C@H](OC)C2)CC(=O)[C@H](C)/C=C(\\C)[C@@H](O)[C@@H](OC)C(=O)[C@H](C)C[C@H](C)/C=C/C=C/C=C/1C", "note": "[rapamycin]", "values": [{"measurement": "dG1: relative lengthening of the G1 phase of the cell cycle under Rapamycin effect", "setting": "cultured lymphocytes [2]; lymphocytes of individual patients, diagnosis AD (probable AD, NINCDS)", "value": "44.03% and 97.07% and 82.67% and 62.12% and 73.01% and 47.91% and 53.63% and 0% and 27%"}, {"measurement": "dG1: relative lengthening of the G1 phase of the cell cycle under Rapamycin effect", "setting": "cultured lymphocytes [2]; lymphocytes of individual patients, diagnosis ADM", "value": "64.28% and 39.2% and 95.23% and 46.31% and 59.49% and 51.81% and 51.62%"}, {"measurement": "dG1: relative lengthening of the G1 phase of the cell cycle under Rapamycin effect", "setting": "cultured lymphocytes [2]; lymphocytes of individual patients, diagnosis DNOS", "value": "31.64% and 69.07% and 97.27%"}, {"measurement": "dG1: relative lengthening of the G1 phase of the cell cycle under Rapamycin effect", "setting": "cultured lymphocytes [2]; lymphocytes of individual patients, diagnosis possAD", "value": "56.77% and 60.1% and 98.1%"}, {"measurement": "dG1: relative lengthening of the G1 phase of the cell cycle under Rapamycin effect", "setting": "cultured lymphocytes [2]; lymphocytes of individual subjects, diagnosis Control", "value": "51.69% and 64.1% and 40.07% and 114.1% and 119.8% and 50.04% and 177.8% and 62.81% and 54.56% and 162.7% and 97.33% and 46.02% and 110.8% and 140.6%"}, {"measurement": "dG1: relative lengthening of the G1 phase of the cell cycle under Rapamycin effect", "setting": "cultured lymphocytes [2]; lymphocytes of individual subjects, diagnosis preAD", "value": "0% (3×) and 26.1% and 36.18% and 54.46% and 39.2% and 72.58% and 44.49% and 31.37% and 25.47% and 35.02% and 42.1%"}, {"measurement": "Mean (dG1)", "setting": "cultured lymphocytes [2]; AD, n=9", "value": 54.1602, "unit": "%"}, {"measurement": "Mean (dG1)", "setting": "cultured lymphocytes [2]; ADM, n=7", "value": 58.2765, "unit": "%"}, {"measurement": "Mean (dG1)", "setting": "cultured lymphocytes [2]; CONTROL, n=14", "value": 92.3135, "unit": "%"}, {"measurement": "Mean (dG1)", "setting": "cultured lymphocytes [2]; DNOS, n=3", "value": 65.9933, "unit": "%"}, {"measurement": "Mean (dG1)", "setting": "cultured lymphocytes [2]; POSSAD, n=3", "value": 71.6584, "unit": "%"}, {"measurement": "Mean (dG1)", "setting": "cultured lymphocytes [2]; PREAD, n=13", "value": 31.3039, "unit": "%"}, {"measurement": "Mean dG1 by ApoE4", "setting": "cultured lymphocytes [2]; subjects with 0 ApoE4 alleles, n=28", "value": 61.1186, "unit": "%"}, {"measurement": "Mean dG1 by ApoE4", "setting": "cultured lymphocytes [2]; subjects with 1 ApoE4 allele, n=19", "value": 63.0025, "unit": "%"}, {"measurement": "Mean dG1 by ApoE4", "setting": "cultured lymphocytes [2]; subjects with 2 ApoE4 alleles, n=2", "value": 49.6519, "unit": "%"}]}, {"smiles": "OO", "note": "[H2O2]", "values": [{"measurement": "Cell numbers after treatment (treated versus control cultures)", "setting": "cultured lymphocytes [1]; 120 μM H2O2, 24 h, AD, preAD and possAD patients versus control subjects", "value": "significantly higher cell numbers than control subjects"}]}]}
